How the values were obtained:
[1] = tested on: patients with refractory/unexplained chronic cough; test: Phase II double-blind cross-over comparative study: cough frequency and Leicester Cough Questionnaire; format: in vivo, human
Procedure: A Phase II double-blind cross-over comparative study was conducted in patients with refractory/unexplained chronic cough.
In patients with refractory/unexplained chronic cough, the placebo-adjusted change from baseline in the number of coughs per hour during daytime (7 am to 7:59 pm, which means right before 8:00 pm) after 2 weeks of administration of the compound represented by Formula (I), and its significance were evaluated. Similarly, the placebo-adjusted change from baseline in the number of coughs per hour in 24 hours after administration of the compound represented by Formula (I) and its significance were also evaluated.
The placebo-adjusted change is defined by the following equation.
The trial was conducted as a placebo-controlled, multicenter, randomized, double-blind, cross-over comparative study. The study consists of a screening phase (1 to 4 weeks), a first treatment phase (15 days), a drug holiday (2 to 3 weeks), a second treatment phase (15 days) and a follow-up phase (1 week).
Subjects (20 females, 11 males, mean age of 50.0 years) were randomly assigned to either the group receiving the compound according to Formula (I) first or the group receiving the placebo first. The subjects in the group receiving the compound according to Formula (I) first received orally tablets containing 150 mg of the compound according to Formula (I) (50 mg, 3 tablets), and the subjects in the group receiving the placebo first received orally placebo tablets (3 tablets), from the day following the first treatment phase once daily in the morning for 2 weeks.
(For the number of coughs per hour during daytime in each of the first and second treatment phases, the mixed effect model was applied, with the common logarithms of the ratio to the baseline after 2 weeks of administration as the responses, the investigational drugs, the administration groups (group receiving the compound represented by Formula (I) first and group receiving the placebo first), and the phases as the fixed effects, the individuals as the random effects, and the common logarithms of the number of coughs per hour at baseline as the covariates.) (Results) A comparison (full analysis population) of the change in the number of coughs per hour in 24 hours is shown in Table 4.
(For the number of coughs per hour in 24 hours in each of the first and second treatment phases, the mixed effect model was applied, with the common logarithms of the ratio to the baseline after 2 weeks of administration as the responses, the investigational drugs, administration groups (group receiving the compound represented by Formula (I) first and group receiving the placebo first), and phases as the fixed effects, the individuals as the random effects, and the common logarithms of the number of coughs per hour at baseline as the covariates.) (Results) A comparison (full analysis population) of the total change in the sum of the three domains of the Leicester Cough Questionnaire [Japanese version] is shown in Table 5.
(For the change from baseline in the total score of the three domains of the Leicester Cough Questionnaire [Japanese version] at the end or discontinuation of each of the first and second treatment phases, the mixed effect model was applied, with the changes from the baseline as the responses, the investigational drugs, phases, and administration groups (group receiving the compound represented by Formula (I) first and group receiving the placebo first) as the fixed effects, the individuals as the random effects, and the total scores of the three domains of the Leicester Cough Questionnaire [Japanese version] at baseline as the covariates.)

[2] = target: T1, human P2X2/3 receptor (Homo sapiens, UniProt P56373+Q9UBL9); test: Evaluation of human P2X2/3 receptor inhibitory activity (Fluo-3 fluorescence, C6BU-1 cells, α,β-methylene ATP 6 μM)
T1 sequence (Q9UBL9 1-471): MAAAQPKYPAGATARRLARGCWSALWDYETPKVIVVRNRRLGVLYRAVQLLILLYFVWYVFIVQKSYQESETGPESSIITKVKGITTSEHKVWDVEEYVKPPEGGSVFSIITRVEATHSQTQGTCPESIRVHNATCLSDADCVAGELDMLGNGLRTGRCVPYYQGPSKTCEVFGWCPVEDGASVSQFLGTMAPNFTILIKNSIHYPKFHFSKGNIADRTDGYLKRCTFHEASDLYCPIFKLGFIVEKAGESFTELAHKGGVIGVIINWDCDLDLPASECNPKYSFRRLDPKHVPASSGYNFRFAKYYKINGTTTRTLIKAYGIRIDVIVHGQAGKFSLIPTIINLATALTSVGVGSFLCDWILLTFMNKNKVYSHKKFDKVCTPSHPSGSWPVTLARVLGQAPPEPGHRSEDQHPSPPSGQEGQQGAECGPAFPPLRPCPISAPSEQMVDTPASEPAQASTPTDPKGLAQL
T1 sequence (P56373 1-397): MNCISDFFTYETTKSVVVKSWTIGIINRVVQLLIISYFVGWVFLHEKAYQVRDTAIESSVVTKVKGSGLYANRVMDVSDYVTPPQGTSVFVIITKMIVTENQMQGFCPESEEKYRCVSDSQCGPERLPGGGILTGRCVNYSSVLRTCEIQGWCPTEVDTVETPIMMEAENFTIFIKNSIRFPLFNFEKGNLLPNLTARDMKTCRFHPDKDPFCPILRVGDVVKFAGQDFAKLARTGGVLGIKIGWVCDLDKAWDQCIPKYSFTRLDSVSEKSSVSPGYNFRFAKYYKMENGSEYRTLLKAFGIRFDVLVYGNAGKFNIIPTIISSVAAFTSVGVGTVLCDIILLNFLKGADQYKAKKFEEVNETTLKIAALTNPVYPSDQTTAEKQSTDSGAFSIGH

[3] = Phase I repeat dose study (safety, tolerability); format: in vivo, human
[4] = Phase I single dose and food effect study (safety, tolerability)
[5] = 150 mg once daily, 2 weeks, from baseline, full analysis population
[6] = 150 mg once daily, 2 weeks, full analysis population

C[C@@H](Cn1c(=O)[nH]/c(=N\c2ccc(Oc3ccccn3)cc2)n(Cc2ccc(Cl)cc2)c1=O)C(=O)O [compound represented by Formula (I), (2S)-3-(3-[(4-Chlorophenyl)methyl]-2,6-dioxo-4-{[4-(pyridin-2-yloxy)phenyl]amino}-3,6-dihydro-1,3,5-triazin-1(2H)-yl)-2-methyl-propanoic acid]
Drug differences, total score of the three domains of the Leicester Cough Questionnaire ([1]; 150 mg once daily vs placebo): 1.40
difference between investigational drug groups in total score of the three domains of the Leicester Cough Questionnaire ([1]; 150 mg once daily vs placebo, significant difference): 1.40 points
placebo-adjusted rate of decrease in the number of coughs per hour during daytime ([1]; 150 mg once daily, 2 weeks): 31.6%
Estimated amount of change, total score of the three domains of the Leicester Cough Questionnaire ([1]; 150 mg once daily, 2 weeks, from baseline): 2.46
Estimated rate of change in number of coughs per hour during daytime [1, 5]: −54.1%
Estimated rate of change in number of coughs per hour in 24 hours [1, 5]: −52.6%
Rate of change adjusted by placebo, number of coughs per hour during daytime [1, 6]: −31.6%
Rate of change adjusted by placebo, number of coughs per hour in 24 hours [1, 6]: −30.9%
placebo-adjusted rate of decrease in the number of coughs per hour in 24 hours ([1]; 150 mg once daily, 2 weeks, significant difference): 30.9%
IC50 [2]: 1.1 µM
dysgeusia or any taste-related disorder ([3]; 150 and 300 mg once daily for 2 weeks): no dysgeusia or any taste-related disorder was observed
deaths, serious adverse events, adverse events leading to discontinuation of administration ([3]; any administration group, healthy adult males): no deaths, serious adverse events or adverse events leading to discontinuation of administration
deaths, serious adverse events, adverse events leading to discontinuation of administration ([4]; Part A and Part B, healthy adult males): no deaths, serious adverse events, or adverse events leading to discontinuation of administration
taste-related adverse events or side effects ([4]; all Phase I studies conducted (single dose/food effect and repeat dose)): No taste-related adverse events or side effects were observed
dysgeusia or any taste-related disorder as adverse event ([4]; single dose 3, 10, 30, 100, 300 and 450 mg groups): no dysgeusia or any taste-related disorder was observed
